Earlier results as cited in patent US20220296868A1, “INTRACRANIAL DELIVERY OF MEDICINAL SOLUTION” (InCube Labs, LLC, priority 2019, published 2022).

Legend:
[1] = hydrochloride salt of topotecan
white blood cell count = conditions: in vivo
[2] = not given; remark: listed apart in the source
[3] = in vitro, human liver microsomes

- solubility in water [1]: freely soluble
- mean metabolite:parent AUC ratio (N-demethylated metabolite, total topotecan and topotecan lactone, following IV administration): about 3%
- total exposure (AUC) versus dose (cancer subjects, 0.5 to 1.5 mg/m^2 as 30-minute IV infusion): approximately dose-proportional
- binding to plasma proteins (plasma proteins): about 35%
- lactone form ([2]; pH≤4): exclusively present
- ring-opened hydroxy-acid form ([2]; physiologic pH): predominates
Compound: CC[C@@]1(O)C(=O)OCc2c1cc1n(c2=O)Cc2cc3c(CN(C)C)c(O)ccc3nc2-1 [topotecan]
- dose-limiting toxicity (white blood cell count): leukopenia
- metabolism [3]: metabolized to an Ndemethylated metabolite
